Calls of active or inactive are those of the source. The rule behind the calls is not given here.
Biological target: Neuropeptides B/W receptor type 1 (Homo sapiens) (UniProt P48145)
Experiment: human NPBW1 receptor blockade – cell-based, fluorescence, percent inhibition, late-stage follow-up (AID 588562)
Conditions: GPR7-expressing cells, fluorescence antagonist assay; at 20 µM; active compounds read high

Neuropeptides B/W receptor type 1 (Homo sapiens), sequence (P48145 whole entry, looked up): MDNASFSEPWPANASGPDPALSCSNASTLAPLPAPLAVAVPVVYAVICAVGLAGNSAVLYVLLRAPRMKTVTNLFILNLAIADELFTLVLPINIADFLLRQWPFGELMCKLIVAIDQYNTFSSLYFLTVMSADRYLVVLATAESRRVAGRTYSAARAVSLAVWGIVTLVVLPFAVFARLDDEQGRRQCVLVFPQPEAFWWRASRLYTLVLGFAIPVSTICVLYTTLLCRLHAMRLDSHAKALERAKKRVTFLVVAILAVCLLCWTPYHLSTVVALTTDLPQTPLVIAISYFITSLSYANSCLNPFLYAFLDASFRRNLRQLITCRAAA

SMILES | inhibition
CC(C)c1ccc(-n2ncc(Cl)c(Oc3cc(C(C)(C)C)cc(C(C)(C)C)c3)c2=O)cc1 | -3% (inactive)
COc1ccc(Oc2ccnn(-c3ccc(C)cc3)c2=O)cc1 | 24% (inactive)
COc1ccc(Oc2c(N3CCN(C(=O)OC(C)(C)C)CC3)cnn(-c3ccc(C(C)C)cc3)c2=O)cc1 | 15% (inactive)
COc1ccc(COc2c(Cl)cnn(-c3ccc(C(C)C)cc3)c2=O)cc1 | 27% (inactive)
CC(C)c1ccc(-n2ncc(Cl)c(Oc3ccc(C(F)(F)F)cc3)c2=O)cc1 | 55% (inactive)
COc1ccc(Oc2c(N)cnn(-c3ccc(C(F)(F)F)cc3)c2=O)cc1 | 31% (inactive)
CC(C)c1ccc(-n2ncc(NCc3ccccc3)c(Cl)c2=O)cc1 | -18% (inactive)

More lines, now with the values ahead:

inhibition | SMILES
-25% (inactive) | COc1ccc(Oc2c(N3CCN(C)CC3)cnn(-c3ccc(C(C)C)cc3)c2=O)cc1
37% (inactive) | COc1ccc(Oc2c(N3CCOCC3)cnn(-c3ccc(C(C)C)cc3)c2=O)cc1
15% (inactive) | COc1ccc(Oc2c(NC(C)=O)cnn(-c3ccc(C(C)C)cc3)c2=O)cc1
15% (inactive) | COc1ccc(Oc2c(-n3nnc(C)c3C)cnn(-c3ccc(C(C)C)cc3)c2=O)cc1
46% (inactive) | CCOc1ccc(Oc2c(Cl)cnn(-c3ccc(C(C)C)cc3)c2=O)cc1
-16% (inactive) | COc1ccc(Oc2c(C(=O)O)cnn(-c3ccc(C(C)C)cc3)c2=O)cc1
-10% (inactive) | COc1ccc(Oc2c(N)cnn(-c3ccc(C(C)C)cc3)c2=O)cc1
7% (inactive) | COc1ccc(Oc2c(C(=O)N(C)C)cnn(-c3ccc(C(C)C)cc3)c2=O)cc1

Source: PubChem BioAssay AID588562 (The Scripps Research Institute Molecular Screening Center, 2011)
